In data set [1] the test system is males and females with IBS-c. As to the kind of experiment: Phase 2a randomized, double-blind, placebo-controlled clinical trial: weekly symptom-based assessments (OSGA, abdominal discomfort/pain, constipation, satisfaction with bowel habit). The data set is classed as in vivo, human. As for the experimental part:
The Clinical Trial reported herein was a Phase 2a, Randomized, Double-Blind, Placebo-Controlled Study. In the Study, 91 males and females with IBS-c were administered doses of DDP733 (0.2, 0.5, 0.8 and 1.4 mg) and placebo, three times a day for 28 days (4 weeks). Study Details: • Phase 2a, randomized, double-blinded, placebo controlled parallel group design • 91 males and females with IBS-c • 7 week study with 4 weeks of treatment • Five treatment groups: • DDP733: 0.2 mg, 0.5 mg, 0.8 mg or 1.4 mg three times a day (approximately 30 to 60 minutes before breakfast, lunch and dinner) • PLACEBO: Three times a day (approximately 30 to 60 minutes before breakfast, lunch and dinner). • Assess effect on relief of IBS-c using symptom-based assessment including the following weekly questions: Overall response (OSGA); Abdominal discomfort/pain; Constipation; and Satisfaction with bowel habit. • Assess effect on pharmacodynamic measure (gastrointestinal transit) at baseline and week 4 using radio-opaque markers. • Establish safety profile. Key Subject Inclusion Criteria: • 1. Male or female from 18 to 65 years of age, inclusive • 2. IBS-c for at least three months prior to randomization as defined by the subject's response to the criteria below adapted from the Rome II • Modular Questionnaire: • a. Subject experiences discomfort or pain in the abdomen during at least 3 weeks (at least one day in each week) in the last 3 months. • b. Subject experiences one or more of the following: • i. Discomfort or pain that gets better or stops after a bowel movement • ii. Change in the usual number of bowel movements (either more or fewer) when the discomfort or pain starts • iii. Softer or harder stools than usual when the discomfort or pain starts • c. Patient experiences two or more of the following at least one-fourth (¼) of the occasions or days in the last three months: • i. Fewer than three bowel movements per week (0-2) • ii. Hard or lumpy stools • iii. Straining during a bowel movement • d. Patient experiences none of the following more than one-fourth (¼) of the occasions or days in the last three months: • i. More than three bowel movements a day (4 or more) • ii. Loose, mushy or watery stools • iii. Having to rush to the toilet to have a bowel movement • 3. Completion of at least six days of daily diary assessments in the week of screening prior to Visit 3 with a documented average stool consistency score of ≦2.5. Stool consistency was rated as 1=very hard, 2=hard, 3=formed, 4=loose, 5=watery. Clinical Symptoms were assessed using the following weekly questions: [table] […] Subjects were defined as Overall SGA responders, prior to the study, if: • 1. Somewhat relieved or better at 100% of SGAs (Response 3 at all weekly time points), or considerably/completely relieved for at least 50% of SGAs (Response 1 or 2 for at least 2 of the 4 weekly timepoints) or considerably/completely relieved at Week 4 (Response 1 or 2 at Week AND • 2. No more than 5 days of laxative use excluding bulk-forming laxatives over the 4-week treatment period.

The subject of data set [2] is males and females with IBS-c. As to the kind of experiment: Phase 2a clinical trial: safety measurements (vital signs, adverse events, clinical laboratory testing, ECGs). The settings on record: 0.2, 0.5, 0.8 or 1.4 mg three times a day for 28 days. The class given is in vivo, human. The procedure: The Clinical Trial reported herein was a Phase 2a, Randomized, Double-Blind, Placebo-Controlled Study. In the Study, 91 males and females with IBS-c were administered doses of DDP733 (0.2, 0.5, 0.8 and 1.4 mg) and placebo, three times a day for 28 days (4 weeks). Study Details: • Phase 2a, randomized, double-blinded, placebo controlled parallel group design • 91 males and females with IBS-c • 7 week study with 4 weeks of treatment • Five treatment groups: • DDP733: 0.2 mg, 0.5 mg, 0.8 mg or 1.4 mg three times a day (approximately 30 to 60 minutes before breakfast, lunch and dinner) • PLACEBO: Three times a day (approximately 30 to 60 minutes before breakfast, lunch and dinner). Safety measurements included monitoring of vital signs and adverse events, clinical laboratory testing and performance of electrocardiograms (ECGs).

[3] abbreviates: overall responders within the 1.4 mg, 3 times a day treatment group.

The structures appear in SMILES notation. Entries after “also recorded” stand apart in the source; their conditions may differ.

For the compound `O=C(N[C@H]1CN2CCC1CC2)c1c[nH]c2ccsc2c1=O` [DDP733, (R)—N-1-azabicyclo[2.2.2]oct-3-yl-4,7-dihydro-7-oxothieno[3,2-b]pyridine-6-carboxamide], the “subjects reporting overall symptom relief (Overall SGA responders, OSGA)” value in data set [1] (1.4 mg three times a day (4.2 mg/day), oral, 4-week treatment, IBS-c subjects, placebo about 15%) worked out at 54%. Besides, the “statistical significance on clinical endpoint overall symptom relief (OSGA)” value in data set [1] (1.4 mg three times a day (4.2 mg/day), Pearson chi squared test) was “Statistical significance (using the Pearson chi squared test) was achieved”. Besides, the “OSGA clinical response at one week post-treatment” value in data set [1] (1.4 mg three times a day, one week post-treatment (FIG. 2)) is “lost (i.e., returned to the level of placebo); also recorded: loss of response (return to level of placebo response)”. In addition, the “other weekly subject global assessments (abdominal discomfort/pain, constipation, satisfaction with bowel habit)” value in data set [1] (4.2 mg/day dose, Questionnaires 2, 3 and 4) was “consistent pattern of improvement”. For the same compound, the “diarrhea reported by responders during the treatment period” value in data set [1] (4.2 mg/day group, responders) is “no responders reported any diarrhea”. The “laxative use among responders showing overall symptom relief” value in data set [1] (4.2 mg/day group, responders, treatment period) is “relief was achieved in all responders without the use of laxatives”. In data set [1] (setting [3]), the “constipation and satisfaction with bowel habit” value is on record as “also improved on treatment”; the “weekly pain response (Variable 2, abdominal discomfort/pain)” value is “a decrease in weekly pain response was observed”. Further, in data set [2], the “drug related adverse events (nausea, pruritis and rash)” value is “mainly mild-moderate, transient in nature and required no intervention”; the “lab or ECG abnormalities” value is recorded as “no pattern of lab or ECG abnormalities”.
